The values below come from patent US11331327B2, “Antibacterial use of halogenated salicylanilides” (UNION therapeutics A/S, priority 2014, dated 2022).

One data set deals with S. aureus strains. In words: Minimum Inhibitory Concentration (MIC) assay, Example 1, S. aureus strains. Particulars: Staphylococcus aureus, read-out: Mic100 S. aureus. Format: cell-based. The procedure:
(§1) Strains were conserved in Luria Bertani (LB) Broth (S. aureus) or Brain Heart Infusion (BHI) (S. pyogenes) supplemented with glycerol 15% (v/v) at −80° C., and reactivated by isolation on LB (S. aureus) or BHI (S. pyogenes) agar plates. Strains were cultivated in Mueller Hinton (MH) Broth-cation adjusted (S. aureus) supplemented with lysed horse blood 2.5% (v/v) (S. pyogenes). All strains were cultivated at 37° C., aerobically for S. aureus strains.
(§2) Bacterial cultures were stopped in their exponential growth phase and plates were inoculated with the approximate concentration of 10^3 cells per well. Plates were incubated at 37° C. for 18 hours (S. aureus) or 24 hours (S. pyogenes). Optical density at a wavelength of 600 nm was measured at the end of the incubation time. […] Experiments were performed at least as triplicate biological replicates with all strains.

For another data set, the system named is S. pyogenes strains. In words: Minimum Inhibitory Concentration (MIC) assay, Example 1, S. pyogenes strains. The note with it: Streptococcus pyogenes, read-out: Mic100 S. pyogenes. The format is cell-based, Streptococcus pyogenes. Here is the method:
as §1, §2

Data set [1] has as its system MRSA 01, MRSA 15, MRSA 16. In words: Mutational frequency evaluation, Example 1. Format: cell-based, Staphylococcus aureus. The note with it: for Resistance mutation rate at MIC × 1: tested against one strain: MRSA 01; for mutational frequency at MIC×1: text summary of Table 4. The procedure: Adequate dilutions were plated on plates without the compound.
Viable cell growth was enumerated after 48 hours of incubation at 37° C.
Ten replicates were carried out for each strain and fusidic acid, mupirocin and retapamulin were used as controls for the MRSA 01 strain.

The conditions of data set [2]: cited from earlier work; for LD50 rats p.o: Table 3.
The conditions of data set [3]: in vivo; cited from earlier work.
The conditions of data set [4]: cited from earlier work.
Where [5] appears, read: tested against one strain: S. pyogenes 01.

“And” between values parts separate entries of the source, which are not always exact repeats. Equal entries are not always repeated. Where two headings read alike, the source gives them in different places. Marks after values point to notes of the source that are not given here. Bounds are passed on as bounds.

What is called LD50 is the dose expected to kill half of the subjects tested. For `Cc1cc(C(C#N)c2ccc(Cl)cc2)c(Cl)cc1NC(=O)c1cc(I)cc(I)c1O` (stereo not drawn) [Closantel, N-[5-chloro-4-[(4-chlorophenyl)cyanomethyl]-2-methylphenyl]-2-hydroxy-3,5-diiodobenzamide], the MIC in the data set on S. aureus strains (S. aureus strains) is ≤ 1.7 µg/mL and ≤ 2.5 µM; in the data set on S. pyogenes strains (setting [5]), 12.8 µg/mL and 19 µM. Besides, the “Resistance mutation rate at MIC × 1” value in data set [1] is on record as “= 2 × 10^−8*”. Also, the “mutational frequency at MIC×1” value in data set [1] is 2×10^−8. For the same compound, the LD50 rats p.o in data set [2] is on record as 300 mg/kg. The LD50 in data set [2] (rats, p.o.) is 262 to 342 mg/kg.
For `O=C(Nc1cc(Cl)cc(Cl)c1O)c1c(O)c(Cl)cc(Cl)c1Cl` [Oxyclozanide, 3,3′,5,5′,6-pentachloro-2′-hydroxysalicylanilide], the MIC in the data set with S. aureus strains (tested against one strain: MRSA 01) is 1.6 µg/mL and 4 µM; with S. pyogenes strains (setting [5]), 6.4 µg/mL and 15.9 µM. Besides, the “mutational frequency at MIC×1” value in data set [1] is recorded as 1×10^−7. Moreover, in data set [2], the LD50 rats p.o is 980 to 3500 mg/kg. For the same compound, the LD50 in data set [2] (rats, p.o.) is 980 to 3519 mg/kg. Besides, the “safety margin after oral administration” value in data set [3] is recorded as “Low safety margin”.
For `O=C(Nc1ccc(Oc2ccc(Cl)cc2)c(Cl)c1)c1cc(I)cc(I)c1O` [Rafoxanide, 3′-chloro-4′-(p-chlorophenoxy)-3,5-diiodosalicylanilide], the MIC in the data set on S. aureus strains (MRSA) was 0.8 µg/mL and 1.25 µM; with S. pyogenes strains, 6.4 µg/mL and 10 µM. Also, the “Resistance mutation rate at MIC × 1” value in data set [1] is recorded as “= 5 × 10^−9*”. Also, the “mutational frequency at MIC×1” value in data set [1] is 5×10^−9. The LD50 mice p.o in data set [4] (Table 3) is recorded as 270 mg/kg. The LD50 in data set [4] (mice, p.o.) was 232 to 300 mg/kg; in data set [2] (rats, p.o.), 980->2000 mg/kg. In data set [2], the LD50 rats p.o is 1500 mg/kg. For the same compound, in data set [2] (rats, p.o., median of studies), the LD50 median was > 1490 mg/kg.
